# ChEMBL document CHEMBL5126506, “Coumarin-benzimidazole hybrids: A review of developments in medicinal chemistry” (Eur J Med Chem, 2022)
# Tests used:
# [1] = Anticancer activity against mouse L1210/0 cells assessed as cell growth inhibition measured after 3 days by CCK-8 assay; type: functional, cell-based; conditions: L1210/0, 72 h
# MOLT-4 = test: Anticancer activity against human Molt4/C8 cells assessed as cell growth inhibition measured after 3 days by CCK-8 assay; type: functional, cell-based; conditions: MOLT-4, 72 h
# CCRF-CEM = test: Anticancer activity against human CEM/0 cells assessed as cell growth inhibition measured after 3 days by CCK-8 assay; type: functional, cell-based; conditions: 72 h
# Pseudomonas aeruginosa [2] = test: Antibacterial activity against Pseudomonas aeruginosa assessed as cell growth inhibition measured after 24 hrs by serial broth-dilution method; type: functional
# Aspergillus flavus [3] = test: […] activity against Aspergillus flavus assessed as cell growth inhibition measured after 24 hrs by serial broth-dilution method; type: functional
# Pseudomonas aeruginosa [4] = test: Antibacterial activity against Pseudomonas aeruginosa assessed as zone of inhibition measured after 24 hrs by agar well diffusion method; type: functional
# Aspergillus flavus [5] = test: […] activity against Aspergillus flavus assessed as zone of inhibition measured after 24 hrs by agar well diffusion method; type: functional
# [6] = Antioxidant activity assessed as DPPH radical scavenging activity incubated for 30 mins in dark condition by spectrophotometrical analysis; type: functional
# MCF7 = test: Anticancer activity against human MCF7 cells assessed as cell growth inhibition measured after 48 hrs by sulforhodamine B staining based analysis; type: functional
# NCI-H460 = test: Anticancer activity against human NCI-H460 cells assessed as cell growth inhibition measured after 48 hrs by sulforhodamine B staining based analysis; type: functional
# SF-268 = test: Anticancer activity against human SF-268 cells assessed as cell growth inhibition measured after 48 hrs by sulforhodamine B staining based analysis; type: functional
# [7] = Cytotoxicity against human WI-38 cells assessed as cell growth inhibition measured after 48 hrs by sulforhodamine B staining based analysis; type: toxicity
# Hepatitis C virus = test: Antiviral activity against HCV GT-1b infected in human Huh-5-2 cells carrying HCV subgenomic replicons assessed as inhibition of viral replication by quantitative RT-PCR assay; type: functional, organism-based, Hepacivirus hominis; conditions: subtype 1b
# Salmonella typhi = test: Antibacterial activity against Salmonella typhi ATCC 11778 assessed as bacterial growth inhibition at 50 ug/ml incubated for 24 hrs relative to control; type: functional, Salmonella enterica subsp. enterica serovar Typhi; parameters: scale not given: the % may be the effect or the level left; conditions: dose 50 µg/ml
# Shigella dysenteriae = test: Antibacterial activity against Shigella dysenteriae ATCC 49345 assessed as bacterial growth inhibition at 50 ug/ml incubated for 24 hrs relative to control; type: functional; parameters: scale not given: the % may be the effect or the level left; conditions: dose 50 µg/ml
# Staphylococcus aureus [8] = test: Antibacterial activity against Staphylococcus aureus assessed as zone of inhibition at 1000 ug/ml measured after 24 hrs by cup plate method; type: functional; conditions: read-out: DIZ
# Bacillus subtilis = test: Antibacterial activity against Bacillus subtilis assessed as zone of inhibition at 1000 ug/ml measured after 24 hrs by cup plate method; type: functional; conditions: read-out: DIZ
# Pseudomonas aeruginosa [9] = test: Antibacterial activity against Pseudomonas aeruginosa assessed as zone of inhibition at 1000 ug/ml measured after 24 hrs by cup plate method; type: functional; conditions: read-out: DIZ
# Escherichia coli = test: Antibacterial activity against Escherichia coli assessed as zone of inhibition at 1000 ug/ml measured after 24 hrs by cup plate method; type: functional; conditions: read-out: DIZ
# Aspergillus niger = test: Antifungal activity against Aspergillus niger assessed as zone of inhibition at 1000 ug/ml measured after 24 hrs by cup plate method; type: functional; conditions: read-out: DIZ
# Aspergillus flavus [10] = test: Antifungal activity against Aspergillus flavus assessed as zone of inhibition at 1000 ug/ml measured after 24 hrs by cup plate method; type: functional; conditions: read-out: DIZ
# Aspergillus terreus = test: Antifungal activity against Aspergillus terreus assessed as zone of inhibition at 1000 ug/ml measured after 24 hrs by cup plate method; type: functional; conditions: read-out: DIZ
# Rattus norvegicus = test: Antiinflammatory activity in formalin induced fasted albino rat paw oedema model assessed as inhibition of paw oedema at 100 mg/kg, po measured after 4 hrs by plethysmograph analysis relative to control; type: functional; parameters: scale not given: the % may be the effect or the level left
# Carbonic anhydrase 1 = Carbonic anhydrase 1 (Homo sapiens, UniProt P00915); test: Inhibition of human carbonic anhydrase-1 by stopped flow CO2 hydrase assay
# Carbonic anhydrase 2 = Carbonic anhydrase 2 (Homo sapiens, UniProt P00918); test: Inhibition of human carbonic anhydrase-2 by stopped flow CO2 hydrase assay
# HeLa = test: Anticancer activity against human HeLa cells assessed as cell growth inhibition by SRB method; type: functional
# Staphylococcus aureus [11] = test: Antibacterial activity against beta lactamase positive Staphylococcus aureus ATCC 25923 assessed as zone of inhibition at 0.5 mg/ml incubated for 18 hrs by Kirby-Bauer disk diffusion method; type: functional; conditions: read-out: DIZ
# Sprivivirus cyprinus = test: Antiviral activity against Carp sprivivirus infected Fathead minnow EPC cells assessed as assessed as suppression of virus-induced cytopathic effect incubated for 48 hrs by CCK-8 assay; type: functional, organism-based
# Sequence of Carbonic anhydrase 1 (P00915 whole entry): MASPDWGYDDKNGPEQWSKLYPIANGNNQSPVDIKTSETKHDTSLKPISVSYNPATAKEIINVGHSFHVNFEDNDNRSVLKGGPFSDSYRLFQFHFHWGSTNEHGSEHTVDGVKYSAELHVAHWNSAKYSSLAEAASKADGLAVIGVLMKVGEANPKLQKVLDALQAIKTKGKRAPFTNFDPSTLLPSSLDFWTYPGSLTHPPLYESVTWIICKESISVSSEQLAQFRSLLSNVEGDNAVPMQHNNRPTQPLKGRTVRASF
smiles,measurement,setting,value
Cc1ccc2oc(=O)c(-c3nc4cc(Cl)ccc4[nH]3)cc2c1,IC50,[1],5.1 µg/mL
same,IC50,MOLT-4,3.6 µg/mL
same,IC50,CCRF-CEM,1.9 µg/mL
O=c1oc2ccccc2c(O)c1C(Sc1nc2ccccc2[nH]1)c1ccccc1 (stereo not drawn),MIC,Pseudomonas aeruginosa [2],200 µg/mL
same,MIC,Aspergillus flavus [3],200 µg/mL
same,diameter of the inhibition zone (DIZ),Pseudomonas aeruginosa [4],23 mm
same,diameter of the inhibition zone (DIZ),Aspergillus flavus [5],18 mm
O=C(Cc1cc(=O)oc2c([N+](=O)[O-])cccc12)Nc1nc2ccccc2[nH]1,EC50,[6],0.08 µM
O=c1oc2ccccc2c2cc(O)n3c4ccccc4nc3c12,GI50,MCF7,44 µM
same,GI50,NCI-H460,29 µM
same,GI50,SF-268,20.6 µM
same,GI50 at 48 h,[7],28.2 µM
CC(=O)OC[C@H]1O[C@@H](n2c(SCc3cc4ccccc4oc3=O)nc3cc(Cl)c(Cl)cc32)[C@H](OC(C)=O)[C@@H](OC(C)=O)[C@@H]1OC(C)=O,EC50,Hepatitis C virus,3.1 µM
O=c1oc2ccc(Cl)cc2cc1CSc1nc2ccc([N+](=O)[O-])cc2[nH]1,Activity,Salmonella typhi,100%
same,Activity,Shigella dysenteriae,100%
O=c1oc2ccc(Br)cc2cc1CSc1nc2ccccc2[nH]1,EC50,Hepatitis C virus,4 µM
same,Activity,Salmonella typhi,100%
same,Activity,Shigella dysenteriae,100%
O=C1CSC(c2cc3ccc(O)cc3oc2=O)N1Nc1nc2ccccc2[nH]1 (stereo not drawn),zone of inhibition at 1000 µg/mL,Staphylococcus aureus [8],13 mm
same,zone of inhibition at 1000 µg/mL,Bacillus subtilis,13 mm
same,zone of inhibition at 1000 µg/mL,Pseudomonas aeruginosa [9],13 mm
same,zone of inhibition at 1000 µg/mL,Escherichia coli,13 mm
same,zone of inhibition at 1000 µg/mL,Aspergillus niger,13 mm
same,zone of inhibition at 1000 µg/mL,Aspergillus flavus [10],13 mm
same,zone of inhibition at 1000 µg/mL,Aspergillus terreus,13 mm
same,Activity,Rattus norvegicus,48%
O=c1cc(C[n+]2cn(Cc3ccc4ccccc4c3)c3ccccc32)c2ccc(O)cc2o1,IC50,Carbonic anhydrase 1,5.34 µM
same,IC50,Carbonic anhydrase 2,6.01 µM
O=c1oc2cc(O)ccc2cc1/C=N/Nc1nc2ccccc2[nH]1,zone of inhibition at 1000 µg/mL,Staphylococcus aureus [8],13 mm
same,zone of inhibition at 1000 µg/mL,Bacillus subtilis,13 mm
same,zone of inhibition at 1000 µg/mL,Pseudomonas aeruginosa [9],13 mm
same,zone of inhibition at 1000 µg/mL,Escherichia coli,13 mm
same,zone of inhibition at 1000 µg/mL,Aspergillus niger,13 mm
same,zone of inhibition at 1000 µg/mL,Aspergillus flavus [10],13 mm
same,zone of inhibition at 1000 µg/mL,Aspergillus terreus,13 mm
same,Activity,Rattus norvegicus,39%
O=c1oc2ccc(Br)cc2cc1CSc1nc2cc(F)ccc2[nH]1,EC50,Hepatitis C virus,3.4 µM
COc1cccc2cc(CSc3nc4cc(Cl)c(Cl)cc4[nH]3)c(=O)oc12,EC50,Hepatitis C virus,3.6 µM
Cc1c(C2SCC(=O)N2Nc2nc3ccccc3[nH]2)c(=O)oc2cc(O)ccc12 (stereo not drawn),zone of inhibition at 1000 µg/mL,Staphylococcus aureus [8],13 mm
same,zone of inhibition at 1000 µg/mL,Bacillus subtilis,13 mm
same,zone of inhibition at 1000 µg/mL,Pseudomonas aeruginosa [9],13 mm
same,zone of inhibition at 1000 µg/mL,Escherichia coli,13 mm
same,zone of inhibition at 1000 µg/mL,Aspergillus niger,13 mm
same,zone of inhibition at 1000 µg/mL,Aspergillus flavus [10],13 mm
same,zone of inhibition at 1000 µg/mL,Aspergillus terreus,13 mm
same,Activity,Rattus norvegicus,20%
O=c1cc(Cc2nc3ccccc3[nH]2)c2cccc([N+](=O)[O-])c2o1,EC50,[6],0.17 µM
COc1ccc2oc(=O)cc(-c3nc4ccccc4n3S(=O)(=O)c3ccc(C)cc3)c2c1,GI50,HeLa,35 µg/mL
O=c1oc2ccccc2c(O)c1S(=O)(=O)Nc1nc2ccccc2[nH]1,zone of inhibition at 500 µg/mL,Staphylococcus aureus [11],13 mm
CC(=O)n1c(-c2cc3ccccc3oc2=O)nc2ccccc21,GI50,MCF7,22.7 µM
same,GI50,NCI-H460,36.5 µM
same,GI50,SF-268,31.5 µM
same,GI50 at 48 h,[7],> 100 µM
O=c1ccc2cc(OCCCCn3cnc4ccccc43)ccc2o1,IC50,Sprivivirus cyprinus,0.56 µg/mL
O=C1O[C@H]([C@@H](O)CO)C(O)=C1O [ASCORBIC ACID],EC50,[6],0.03 µM
Cc1cc(C(C)(C)C)c(O)c(C(C)(C)C)c1 [BUTYLATED HYDROXYTOLUENE],EC50,[6],23.4 µM
CO[C@@H]1[C@@H](OC(N)=O)[C@@H](O)[C@H](Oc2ccc3c(O)c(NC(=O)c4ccc(O)c(CC=C(C)C)c4)c(=O)oc3c2C)OC1(C)C [NOVOBIOCIN],zone of inhibition at 500 µg/mL,Staphylococcus aureus [11],25 mm
CN[C@@H]1[C@H](O[C@H]2[C@H](O[C@H]3[C@H](O)[C@@H](O)[C@H](N=C(N)N)[C@@H](O)[C@@H]3N=C(N)N)O[C@@H](C)[C@]2(O)C=O)O[C@@H](CO)[C@H](O)[C@H]1O [STREPTOMYCIN],MIC,Pseudomonas aeruginosa [2],2200 µg/mL
